Test results: the NIST ThermoML archive (doi:10.1016/j.jct.2007.05.011)

Test: xn = mol fraction of the nth substance listed
Settings: 101 kPa, Liquid; for mass density: Vibrating tube method

NCCO.O=CO [2-hydroxyethylammonium formate] + O
Settings | mass density [kg/m3] | speed of sound [m/s]
288.15 K, x2 = 0 | 1183.57 | 1733.9
288.15 K, x2 = 0.047 | 1182.89 | 1759.2
288.15 K, x2 = 0.108 | 1181.45 | 1760.3
288.15 K, x2 = 0.199 | 1178.55 | 1761.4
288.15 K, x2 = 0.311 | 1173.68 | 1761.4
288.15 K, x2 = 0.4 | 1168.78 | 1759.7
288.15 K, x2 = 0.492 | 1162.23 | 1757.1
288.15 K, x2 = 0.601 | 1151.56 | 1749.9
288.15 K, x2 = 0.699 | 1137.39 | 1739.3
288.15 K, x2 = 0.8 | 1114.92 | 1710.8
288.15 K, x2 = 0.9 | 1076.21 | 1644.7
288.15 K, x2 = 0.95 | 1045.03 | 1578.9
290.65 K, x2 = 0 | 1181.81 | 1727.4
290.65 K, x2 = 0.047 | 1181.24 | 1754
290.65 K, x2 = 0.108 | 1179.79 | 1755.5
290.65 K, x2 = 0.199 | 1176.92 | 1756.4
290.65 K, x2 = 0.311 | 1172.05 | 1756.7
290.65 K, x2 = 0.4 | 1167.17 | 1755.1
290.65 K, x2 = 0.492 | 1160.63 | 1752.9
290.65 K, x2 = 0.601 | 1149.99 | 1746.3
290.65 K, x2 = 0.699 | 1135.87 | 1736.3
290.65 K, x2 = 0.8 | 1113.52 | 1709.2
290.65 K, x2 = 0.9 | 1075.06 | 1645.8
290.65 K, x2 = 0.95 | 1044.13 | 1582.3
293.15 K, x2 = 0 | 1180.04 | 1721.3
293.15 K, x2 = 0.047 | 1179.6 | 1748.9
293.15 K, x2 = 0.108 | 1178.13 | 1750.5
293.15 K, x2 = 0.199 | 1175.29 | 1751.4
293.15 K, x2 = 0.311 | 1170.43 | 1752
293.15 K, x2 = 0.4 | 1165.55 | 1750.6
293.15 K, x2 = 0.492 | 1159.04 | 1748.7
293.15 K, x2 = 0.601 | 1148.42 | 1742.6
293.15 K, x2 = 0.699 | 1134.35 | 1733.3
293.15 K, x2 = 0.8 | 1112.1 | 1707.5
293.15 K, x2 = 0.9 | 1073.89 | 1646.8
293.15 K, x2 = 0.95 | 1043.2 | 1585.6
295.65 K, x2 = 0 | 1178.27 | 1715.1
295.65 K, x2 = 0.047 | 1177.95 | 1743.8
295.65 K, x2 = 0.108 | 1176.52 | 1745.4
295.65 K, x2 = 0.199 | 1173.65 | 1746.5
295.65 K, x2 = 0.311 | 1168.8 | 1747.2
295.65 K, x2 = 0.4 | 1163.94 | 1746.1
295.65 K, x2 = 0.492 | 1157.44 | 1744.4
295.65 K, x2 = 0.601 | 1146.85 | 1738.9
295.65 K, x2 = 0.699 | 1132.83 | 1730.2
295.65 K, x2 = 0.8 | 1110.67 | 1705.6
295.65 K, x2 = 0.9 | 1072.7 | 1647.6
295.65 K, x2 = 0.95 | 1042.26 | 1588.8
298.15 K, x2 = 0 | 1176.49 | 1709
298.15 K, x2 = 0.047 | 1176.31 | 1738.7
298.15 K, x2 = 0.108 | 1174.91 | 1740.4
298.15 K, x2 = 0.199 | 1172.02 | 1741.6
298.15 K, x2 = 0.311 | 1167.18 | 1742.5
298.15 K, x2 = 0.4 | 1162.32 | 1741.6
298.15 K, x2 = 0.492 | 1155.83 | 1740.2
298.15 K, x2 = 0.601 | 1145.28 | 1735.1
298.15 K, x2 = 0.699 | 1131.3 | 1727.1
298.15 K, x2 = 0.8 | 1109.23 | 1703.7
298.15 K, x2 = 0.9 | 1071.48 | 1648.3
298.15 K, x2 = 0.95 | 1041.28 | 1591.7
300.65 K, x2 = 0 | 1174.71 | 1702.9
300.65 K, x2 = 0.047 | 1174.67 | 1733.6
300.65 K, x2 = 0.108 | 1173.29 | 1735.3
300.65 K, x2 = 0.199 | 1170.39 | 1736.7
300.65 K, x2 = 0.311 | 1165.55 | 1737.8
300.65 K, x2 = 0.4 | 1160.7 | 1737.1
300.65 K, x2 = 0.492 | 1154.23 | 1735.9
300.65 K, x2 = 0.601 | 1143.7 | 1731.2
300.65 K, x2 = 0.699 | 1129.77 | 1723.9
300.65 K, x2 = 0.8 | 1107.79 | 1701.8
300.65 K, x2 = 0.9 | 1070.24 | 1648.7
300.65 K, x2 = 0.95 | 1040.27 | 1594.4
303.15 K, x2 = 0 | 1172.94 | 1696.8
303.15 K, x2 = 0.047 | 1173.02 | 1728.5
303.15 K, x2 = 0.108 | 1171.66 | 1730.3
303.15 K, x2 = 0.199 | 1168.76 | 1731.8
303.15 K, x2 = 0.311 | 1163.93 | 1733.1
303.15 K, x2 = 0.4 | 1159.09 | 1732.6
303.15 K, x2 = 0.492 | 1152.62 | 1731.6
303.15 K, x2 = 0.601 | 1142.12 | 1727.4
303.15 K, x2 = 0.699 | 1128.22 | 1720.7
303.15 K, x2 = 0.8 | 1106.33 | 1699.7
303.15 K, x2 = 0.9 | 1068.98 | 1649
303.15 K, x2 = 0.95 | 1039.22 | 1596.8
305.65 K, x2 = 0 | 1171.16 | –
305.65 K, x2 = 0.047 | 1171.38 | –
305.65 K, x2 = 0.108 | 1170.03 | –
305.65 K, x2 = 0.199 | 1167.12 | –
305.65 K, x2 = 0.311 | 1162.3 | –
305.65 K, x2 = 0.4 | 1157.47 | –
305.65 K, x2 = 0.492 | 1151.02 | –
305.65 K, x2 = 0.601 | 1140.53 | –
305.65 K, x2 = 0.699 | 1126.67 | –
305.65 K, x2 = 0.8 | 1104.86 | –
305.65 K, x2 = 0.9 | 1067.69 | –
305.65 K, x2 = 0.95 | 1038.12 | –
